Experiment [1] addresses N-terminally truncated recombinant hDHODH enzyme (Homo sapiens, UniProt Q02127). The experiment is described as follows: biochemical. It is filed as biochemical. Here is the method: Briefly, the hDHODH concentration was adjusted in a way that an average slope of approximately 0.2 AU/min served as the positive control (e.g. without inhibitor). The standard assay mixture contained 60 μM 2,6-dichloroindophenol, 50 μM decylubiquinone and 100 μM dihydroorotate. The hDHODH enzyme with or without at least six different concentrations of the compounds was added and measurements were performed in 50 mM TrisHCl, 150 mM KCl and 0.1% Triton X-100 at pH 8.0 and at 30° C. The reaction was started by adding dihydroorotate and measuring the absorption at 600 nm for 2 min. For the determination of the IC50 values, each data point was recorded in triplicate. […].

The subject of experiment [2] is SARS-CoV-2. In words: SARS-CoV-2 viral replication (YFP) assay. Particulars: Severe acute respiratory syndrome coronavirus 2, read-out: EC50 range. It is filed as cell-based.
Setting [3] is: human DHODH assay, read-out: IC50 range.

Molecules are shown by their SMILES. Like-named read-outs stand apart in the source and are kept apart here.

N-terminally truncated recombinant hDHODH enzyme, sequence (Q02127 whole entry, looked up, the tested form may be a part): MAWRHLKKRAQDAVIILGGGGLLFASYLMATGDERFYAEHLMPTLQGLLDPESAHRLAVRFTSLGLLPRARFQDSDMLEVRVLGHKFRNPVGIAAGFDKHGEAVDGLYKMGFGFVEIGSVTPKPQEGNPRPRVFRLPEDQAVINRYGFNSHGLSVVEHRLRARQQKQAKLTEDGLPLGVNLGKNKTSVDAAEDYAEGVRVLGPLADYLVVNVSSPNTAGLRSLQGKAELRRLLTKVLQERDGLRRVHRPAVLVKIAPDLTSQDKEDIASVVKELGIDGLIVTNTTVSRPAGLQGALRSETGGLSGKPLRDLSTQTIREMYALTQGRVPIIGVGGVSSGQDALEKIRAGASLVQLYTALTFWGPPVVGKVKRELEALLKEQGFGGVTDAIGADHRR

In the case of `[2H]c1c([2H])c(F)c([2H])c(-c2c(F)c(F)c(NC(=O)C3=C(C(=O)NOC([2H])([2H])[2H])COC3)c(F)c2F)c1[2H]` [5/2], in experiment [1], the IC50 lay within 100 to 1000 nM. Moreover, the EC50 in experiment [2] was under 1000 nM.

As to `[2H]C([2H])([2H])Oc1cccc(-c2cc(F)c(NC(=O)C3=C(C(=O)NS(=O)(=O)N(C)C)CCC3)c(F)c2)c1` [2/2], in experiment [1] (setting [3]), the IC50 was over 10000 nM. In experiment [2], the EC50 lay in the range of 10000 to 25000 nM.

Turning to `[2H]C([2H])([2H])Oc1cccc(-c2c(F)c(F)c(NC(=O)C3=C(C(=O)NOCCO)COC3)c(F)c2F)c1` [5/6], the IC50 in experiment [1] is 100 to 1000 nM. Moreover, the EC50 in experiment [2] is under 10000 nM.

With `[2H]C([2H])([2H])Oc1cccc(-c2ccc(NC(=O)C3=C(C(=O)NOC)CCC3)c3ccccc23)c1` [4/12], in experiment [1] (setting [3]), the half-maximal inhibitory concentration (IC50) was over 10000 nM. Further, the EC50 in experiment [2] was under 10000 nM.

Regarding `[2H]C([2H])([2H])Oc1cccc(-c2c(F)c(F)c(NC(=O)c3ccoc3C(=O)NOC)c(F)c2F)c1` [Example 10/1], in experiment [1] (setting [3]), the IC50 is under 100 nM. The concentration for a half-maximal effect (EC50) in experiment [2] is under 1000 nM.

For the molecule `[2H]C([2H])([2H])ONC(=O)c1cscc1C(=O)Nc1c(F)c(F)c(-c2ccccc2OC([2H])([2H])[2H])c(F)c1F` [4/32], in experiment [1] (setting [3]), the IC50 is under 100 nM. In addition, in experiment [2], the EC50 is under 1000 nM.

As for `[2H]C([2H])([2H])Oc1cccc(-c2cc(F)c(NC(=O)C3=C(C(=O)NS(N)(=O)=O)COC3)c(F)c2)c1` [Example 2-1, N^3-(3,5-Difluoro-3′-(methoxy-d3)-[1,1′-biphenyl]-4-yl)-N^4-sulfamoyl-2,5-dihydrofuran-3,4-di-carboxamide], in experiment [1], the IC50 is 100 to 1000 nM. Moreover, in experiment [2], the EC50 fell in the range of 10000 to 25000 nM.

In the case of `[2H]C([2H])([2H])Oc1cccc(-c2cc(F)c(NC(=O)C3=C(C(=O)NS(=O)(=O)NC)CCC3)c(F)c2)c1` [2/3], the IC50 in experiment [1] lay within 100 to 1000 nM. Further, the EC50 in experiment [2] lay in the range of 10000 to 25000 nM.

As for `[2H]C([2H])([2H])Oc1cccc(-c2cc(F)c(NC(=O)C3=C(C(=O)NOCC#N)CCC3)c(F)c2)c1` [Example 4/3], the IC50 in experiment [1] is 1000 to 10000 nM. In addition, in experiment [2], the EC50 fell in the range of 10000 to 25000 nM.

In the case of `[2H]C([2H])([2H])ONC(=O)c1cscc1C(=O)Nc1c(F)c(F)c(-c2cccc(OC([2H])([2H])[2H])c2)c(F)c1F` [4/31], the IC50 in experiment [1] (setting [3]) was under 100 nM. Also, in experiment [2], the EC50 was under 1000 nM.

With `[2H]C([2H])([2H])Oc1cccc(-c2c(F)c(F)c(NC(=O)c3ccsc3C(=O)NOCCO)c(F)c2F)c1` [9/7], the IC50 in experiment [1] (setting [3]) is under 100 nM. The EC50 in experiment [2] was under 1000 nM.

As to `[2H]C([2H])([2H])Oc1cccc(-c2cc(F)c(NC(=O)C3=C(C(=O)NS(C)(=N)=O)CCC3)c(F)c2)c1` (centres unmarked) [1/4], the IC50 in experiment [1] (setting [3]) was under 100 nM. Besides, the EC50 in experiment [2] is over 50000 nM.

For the molecule `[2H]C([2H])([2H])Oc1cccc(-c2cc(F)c(NC(=O)c3sccc3C(=O)NOC)c(F)c2)c1` [Example 10, N^2-(3,5-Difluoro-3′-(methoxy-d3)-[1,1′-biphenyl]-4-yl)-N^3-methoxythiophene-2,3-dicarboxamide], the IC50 in experiment [1] was under 100 nM. Besides, the EC50 in experiment [2] is under 1000 nM.

In the case of `[2H]C([2H])([2H])Oc1cccc(-c2cc(F)c(NC(=O)C3=C(/C(N)=N/O)CCC3)c(F)c2)c1` [Example 3-1, (Z)—N-(3,5-Difluoro-3′-(methoxy-d3)-[1,1′-biphenyl]-4-yl)-2-(N-hydroxycarbamimid-oyl)cyclopent-1-ene-1-carboxamide], in experiment [1], the IC50 was over 10000 nM. The EC50 in experiment [2] was under 10000 nM.

In the case of `[2H]C([2H])([2H])Oc1cccc(-c2c(F)c(F)c(NC(=O)c3sc(C)cc3C(=O)NOC)c(F)c2F)c1` [Example 17-2, N3-methoxy-5-methyl-N2-(2,3,5,6-tetrafluoro-3′-(methoxy-d3)-[1,1′-biphenyl]-4-yl)thiophene-2,3-dicarboxamide], in experiment [1] (setting [3]), the IC50 is under 100 nM. Besides, the EC50 in experiment [2] was under 1000 nM.

As to `[2H]C([2H])([2H])Oc1cccc(-c2c(F)c(F)c(NC(=O)c3cscc3C(=O)NS(N)(=O)=O)c(F)c2F)c1` [2/6], the IC50 in experiment [1] (setting [3]) is under 100 nM. Also, in experiment [2], the EC50 is under 10000 nM.
